# Test results taken from PubChem BioAssay AID1963958 (Molecular Pharmacology Branch, DTP, NCI, 2024).
# Tested on: MDA-MB-231 multicell spheroids, viability
# Assay: Anticancer human tumor MDA-MB-231 cell line growth inhibition [PI3K];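 also: spheroids exposed to agents for seven days before reading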;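 as to viability, T/C: percent of vehicle control luminescence with DMSO treated spheroids as 100%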
# Conditions: for IC50: curve of first compound; for viability, T/C: stronger effect = lower value
# Procedure, shortened: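 Complex 3D spheroids (cancer cells + endothelial HUVEC + mesenchymal stem cells); drug pairs of targeted agent x inavolisib/alpelisib/duvelisib/copanlisib; half-log series from ~Cmax, max 10 microM if Cmax unknown; endpoint viability.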
# [1] = second compound 0.0316 µM, first compound 0.0316 µM
# [2] = second compound 0.0316 µM, first compound 0.1 µM
# [3] = second compound 0.0316 µM, first compound 0.316 µM
# [4] = second compound 0.0316 µM, first compound 1 µM
# [5] = second compound 0.1 µM, first compound 0.0316 µM
# [6] = second compound 0.1 µM, first compound 0.1 µM
# [7] = second compound 0.1 µM, first compound 0.316 µM
# [8] = second compound 0.1 µM, first compound 1 µM
# [9] = second compound 0.316 µM, first compound 0.0316 µM
# [10] = second compound 0.316 µM, first compound 0.1 µM
# [11] = second compound 0.316 µM, first compound 0.316 µM
# [12] = second compound 0.316 µM, first compound 1 µM
# [13] = second compound 1 µM, first compound 0.0316 µM
# [14] = second compound 1 µM, first compound 0.1 µM
# [15] = second compound 1 µM, first compound 0.316 µM
# [16] = second compound 1 µM, first compound 1 µM
# [17] = second compound 3.16 µM, first compound 0.0316 µM
# [18] = second compound 3.16 µM, first compound 0.1 µM
# [19] = second compound 3.16 µM, first compound 0.316 µM
# [20] = second compound 3.16 µM, first compound 1 µM
# [21] = second compound 10 µM, first compound 0.0316 µM
# [22] = second compound 10 µM, first compound 0.1 µM
# [23] = second compound 10 µM, first compound 0.316 µM
# [24] = second compound 10 µM, first compound 1 µM
# [25] = second compound 0.0316 µM, first compound 3.16 µM
# [26] = second compound 0.0316 µM, first compound 10 µM
# [27] = second compound 0.1 µM, first compound 3.16 µM
# [28] = second compound 0.1 µM, first compound 10 µM
# [29] = second compound 0.316 µM, first compound 3.16 µM
# [30] = second compound 0.316 µM, first compound 10 µM
# [31] = second compound 1 µM, first compound 3.16 µM
# [32] = second compound 1 µM, first compound 10 µM
# [33] = second compound 3.16 µM, first compound 3.16 µM
# [34] = second compound 3.16 µM, first compound 10 µM
# [35] = second compound 10 µM, first compound 3.16 µM
# [36] = second compound 10 µM, first compound 10 µM
smiles,measurement,setting,value
CCN1CCN(Cc2ccc(Nc3ncc(F)c(-c4cc(F)c5nc(C)n(C(C)C)c5c4)n3)nc2)CC1 + CC(Nc1ncnc2nc[nH]c12)c1cc2cccc(Cl)c2c(=O)n1-c1ccccc1,IC50,second compound 0.0316 µM,> 1000 nM
same,IC50,second compound 0.1 µM,> 1000 nM
same,IC50,second compound 0.316 µM,988 nM
same,IC50,second compound 1 µM,85.4 nM
same,IC50,second compound 3.16 µM,20.1 nM
same,IC50,second compound 10 µM,< 3.16 nM
same,"viability, T/C","second compound 0.0316 µM, first compound 0.00316 µM",96.7%
same,"viability, T/C","second compound 0.0316 µM, first compound 0.01 µM",93.2%
same,"viability, T/C",[1],81.4%
same,"viability, T/C",[2],58.9%
same,"viability, T/C",[3],57.1%
same,"viability, T/C",[4],56.8%
same,"viability, T/C","second compound 0.1 µM, first compound 0.00316 µM",98.2%
same,"viability, T/C","second compound 0.1 µM, first compound 0.01 µM",84.4%
same,"viability, T/C",[5],79%
same,"viability, T/C",[6],59.1%
same,"viability, T/C",[7],55%
same,"viability, T/C",[8],51.9%
same,"viability, T/C","second compound 0.316 µM, first compound 0.00316 µM",92.9%
same,"viability, T/C","second compound 0.316 µM, first compound 0.01 µM",80.7%
same,"viability, T/C",[9],71.2%
same,"viability, T/C",[10],56.8%
same,"viability, T/C",[11],47.4%
same,"viability, T/C",[12],53.5%
same,"viability, T/C","second compound 1 µM, first compound 0.00316 µM",78.4%
same,"viability, T/C","second compound 1 µM, first compound 0.01 µM",70.8%
same,"viability, T/C",[13],53.6%
same,"viability, T/C",[14],47.8%
same,"viability, T/C",[15],50.3%
same,"viability, T/C",[16],49.6%
same,"viability, T/C","second compound 3.16 µM, first compound 0.00316 µM",62.1%
same,"viability, T/C","second compound 3.16 µM, first compound 0.01 µM",54.5%
same,"viability, T/C",[17],49%
same,"viability, T/C",[18],36.8%
same,"viability, T/C",[19],40.5%
same,"viability, T/C",[20],46.7%
same,"viability, T/C","second compound 10 µM, first compound 0.00316 µM",46.5%
same,"viability, T/C","second compound 10 µM, first compound 0.01 µM",40.7%
same,"viability, T/C",[21],37.2%
same,"viability, T/C",[22],29.3%
same,"viability, T/C",[23],41.1%
same,"viability, T/C",[24],49.6%
Cn1ncc(Cl)c1-c1cc(C(=O)NC(CN)Cc2cccc(F)c2)sc1Cl (stereo unspecified) + CC(Nc1ncnc2nc[nH]c12)c1cc2cccc(Cl)c2c(=O)n1-c1ccccc1,IC50,second compound 0.0316 µM,3880 nM
same,IC50,second compound 0.1 µM,3590 nM
same,IC50,second compound 0.316 µM,2610 nM
same,IC50,second compound 1 µM,2190 nM
same,IC50,second compound 3.16 µM,1050 nM
same,IC50,second compound 10 µM,< 31.6 nM
same,"viability, T/C",[1],100%
same,"viability, T/C",[2],96.4%
same,"viability, T/C",[3],84.6%
same,"viability, T/C",[4],74.9%
same,"viability, T/C",[25],55%
same,"viability, T/C",[26],27.8%
same,"viability, T/C",[5],103%
same,"viability, T/C",[6],97.7%
same,"viability, T/C",[7],95.4%
same,"viability, T/C",[8],75.4%
same,"viability, T/C",[27],53.3%
same,"viability, T/C",[28],29.2%
same,"viability, T/C",[9],93.1%
same,"viability, T/C",[10],97.6%
same,"viability, T/C",[11],84.9%
same,"viability, T/C",[12],65.2%
same,"viability, T/C",[29],48.9%
same,"viability, T/C",[30],27.5%
same,"viability, T/C",[13],77.5%
same,"viability, T/C",[14],80.5%
same,"viability, T/C",[15],69.5%
same,"viability, T/C",[16],64%
same,"viability, T/C",[31],43.6%
same,"viability, T/C",[32],23.4%
same,"viability, T/C",[17],63.6%
same,"viability, T/C",[18],62.2%
same,"viability, T/C",[19],57%
same,"viability, T/C",[20],51.9%
same,"viability, T/C",[33],36.3%
same,"viability, T/C",[34],22%
same,"viability, T/C",[21],45.3%
same,"viability, T/C",[22],45%
same,"viability, T/C",[23],47.5%
same,"viability, T/C",[24],43.2%
same,"viability, T/C",[35],29.1%
same,"viability, T/C",[36],20.9%
Cn1nccc1Nc1nccc(-c2ccn(C(CO)c3ccc(Cl)c(F)c3)c(=O)c2)n1 (stereo unspecified) + CC(Nc1ncnc2nc[nH]c12)c1cc2cccc(Cl)c2c(=O)n1-c1ccccc1,IC50,second compound 0.0316 µM,706 nM
same,IC50,second compound 0.1 µM,512 nM
same,IC50,second compound 0.316 µM,300 nM
same,IC50,second compound 1 µM,117 nM
same,IC50,second compound 3.16 µM,< 31.6 nM
same,IC50,second compound 10 µM,< 31.6 nM
same,"viability, T/C",[1],80.1%
same,"viability, T/C",[2],68.8%
same,"viability, T/C",[3],56.8%
same,"viability, T/C",[4],46.4%
same,"viability, T/C",[25],38.6%
same,"viability, T/C",[26],27.9%
same,"viability, T/C",[5],75.3%
same,"viability, T/C",[6],70.2%
same,"viability, T/C",[7],50.6%
same,"viability, T/C",[8],44.3%
same,"viability, T/C",[27],36.4%
same,"viability, T/C",[28],27.1%
same,"viability, T/C",[9],79.3%
same,"viability, T/C",[10],62.3%
same,"viability, T/C",[11],48%
same,"viability, T/C",[12],40.1%
same,"viability, T/C",[29],35.5%
same,"viability, T/C",[30],26.8%
same,"viability, T/C",[13],64.8%
same,"viability, T/C",[14],50.1%
same,"viability, T/C",[15],39.4%
same,"viability, T/C",[16],36.4%
same,"viability, T/C",[31],33%
same,"viability, T/C",[32],22.1%
same,"viability, T/C",[17],45.9%
same,"viability, T/C",[18],38.8%
same,"viability, T/C",[19],28.5%
same,"viability, T/C",[20],24.8%
same,"viability, T/C",[33],25.2%
same,"viability, T/C",[34],21.2%
same,"viability, T/C",[21],36.5%
same,"viability, T/C",[22],27.3%
same,"viability, T/C",[23],25.7%
same,"viability, T/C",[24],20.8%
same,"viability, T/C",[35],22.9%
same,"viability, T/C",[36],16.8%
